pIC50: −log10 of the molar value.
Experiments:
[1] = biological target: T1, Cyclin-dependent kinase/G2/mitotic-specific cyclin- 1 (Homo sapiens, UniProt P06493); assay: Cell Proliferation Assay
From the text: Inhibition of HCT116 cell proliferation with compounds using calcein AM Assay.

[2] = biological target: T2, Cyclin-dependent kinase 4/G1/S-specific cyclin-D1 (Homo sapiens, UniProt P11802); assay: Inhibition Assay
From the text: (§1) In vitro kinase activity of PEGylated pyrazolopyrimidone CDK inhibitor or a 5 PEG-amine was coupled to ReactiGel agarose beads (Pierce, No. 20259).

[3] = biological target: T1, Cyclin-dependent kinase/G2/mitotic-specific cyclin- 1; assay: Inhibition Assay
From the text: as §1

[4] = biological target: T3, Cyclin-dependent kinase 2/G1/S-specific cyclin-E1 (Homo sapiens, UniProt P24941); assay: Inhibition Assay
From the text: as §1

[5] = biological target: T2, Cyclin-dependent kinase 4/G1/S-specific cyclin-D1; assay: In Vitro Kinase Assay
From the text: (§2) Inhibition of in vitro kinase activity of purified CDKs.

[6] = biological target: T1, Cyclin-dependent kinase/G2/mitotic-specific cyclin- 1; assay: In Vitro Kinase Assay
From the text: as §2

[7] = biological target: T3, Cyclin-dependent kinase 2/G1/S-specific cyclin-E1; assay: In Vitro Kinase Assay
From the text: as §2

[8] = biological target: T1, Cyclin-dependent kinase/G2/mitotic-specific cyclin- 1; assay: Cell Proliferation Assay; remark: listed apart in the source
Description: Inhibition of HCT116 cell proliferation after 72hr of incubation with compounds was determined by SRB Assay.

[9] = biological target: Glycogen synthase kinase-3 beta (Homo sapiens, UniProt P49841); assay: In Vitro Kinase Assay
Glycogen synthase kinase-3 beta, sequence (P49841 whole entry): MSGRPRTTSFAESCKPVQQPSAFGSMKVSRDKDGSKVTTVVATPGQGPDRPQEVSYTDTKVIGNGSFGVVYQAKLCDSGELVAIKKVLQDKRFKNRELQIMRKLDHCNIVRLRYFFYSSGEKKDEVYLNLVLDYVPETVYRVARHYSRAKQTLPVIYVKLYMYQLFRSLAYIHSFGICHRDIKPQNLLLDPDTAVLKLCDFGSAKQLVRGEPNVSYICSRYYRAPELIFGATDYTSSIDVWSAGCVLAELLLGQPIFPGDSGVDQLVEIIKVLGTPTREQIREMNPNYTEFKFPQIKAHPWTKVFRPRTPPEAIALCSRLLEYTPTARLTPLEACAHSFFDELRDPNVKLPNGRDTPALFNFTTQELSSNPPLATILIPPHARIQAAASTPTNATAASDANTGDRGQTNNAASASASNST

[10] = biological target: Cyclin-dependent kinase 6/G1/S-specific cyclin-D3 (Homo sapiens, UniProt Q00534); assay: In Vitro Kinase Assay
Cyclin-dependent kinase 6/G1/S-specific cyclin-D3, sequence (Q00534 whole entry): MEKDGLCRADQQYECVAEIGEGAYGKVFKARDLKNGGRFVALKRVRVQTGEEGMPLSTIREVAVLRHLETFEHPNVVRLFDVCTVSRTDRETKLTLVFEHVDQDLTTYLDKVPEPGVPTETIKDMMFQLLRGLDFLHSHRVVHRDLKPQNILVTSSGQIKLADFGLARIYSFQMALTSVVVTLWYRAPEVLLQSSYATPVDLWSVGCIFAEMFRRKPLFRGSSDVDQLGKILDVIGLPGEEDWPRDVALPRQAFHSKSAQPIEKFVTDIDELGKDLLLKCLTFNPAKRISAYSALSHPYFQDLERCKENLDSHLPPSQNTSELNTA
Cyclin-dependent kinase 6/G1/S-specific cyclin-D3, sequence (P30281 whole entry, further chain): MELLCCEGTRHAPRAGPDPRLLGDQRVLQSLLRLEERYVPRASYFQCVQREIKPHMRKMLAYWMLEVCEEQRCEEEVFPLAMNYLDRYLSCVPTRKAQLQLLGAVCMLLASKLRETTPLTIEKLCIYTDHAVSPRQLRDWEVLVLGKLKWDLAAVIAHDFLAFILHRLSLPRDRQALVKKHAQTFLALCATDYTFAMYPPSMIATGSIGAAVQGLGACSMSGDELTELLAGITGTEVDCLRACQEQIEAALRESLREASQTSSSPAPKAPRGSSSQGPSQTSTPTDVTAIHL
From the text: as §2

[11] = biological target: Cyclin-dependent kinase 5 (Homo sapiens, UniProt Q00535); assay: In Vitro Kinase Assay
Cyclin-dependent kinase 5, sequence (Q00535 whole entry): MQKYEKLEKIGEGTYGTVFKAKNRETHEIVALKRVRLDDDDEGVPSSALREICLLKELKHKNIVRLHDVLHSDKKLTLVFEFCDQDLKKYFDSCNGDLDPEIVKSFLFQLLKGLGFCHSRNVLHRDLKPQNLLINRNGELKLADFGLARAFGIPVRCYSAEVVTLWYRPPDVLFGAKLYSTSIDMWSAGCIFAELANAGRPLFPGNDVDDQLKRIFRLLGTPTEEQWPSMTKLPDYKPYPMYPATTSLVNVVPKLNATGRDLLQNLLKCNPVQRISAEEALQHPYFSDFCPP
From the text: as §2

[12] = biological target: T4, CDK-activating kinase assembly factor MAT1 (Homo sapiens, UniProt P51948); assay: In Vitro Kinase Assay
T4 sequence (P51948 whole entry): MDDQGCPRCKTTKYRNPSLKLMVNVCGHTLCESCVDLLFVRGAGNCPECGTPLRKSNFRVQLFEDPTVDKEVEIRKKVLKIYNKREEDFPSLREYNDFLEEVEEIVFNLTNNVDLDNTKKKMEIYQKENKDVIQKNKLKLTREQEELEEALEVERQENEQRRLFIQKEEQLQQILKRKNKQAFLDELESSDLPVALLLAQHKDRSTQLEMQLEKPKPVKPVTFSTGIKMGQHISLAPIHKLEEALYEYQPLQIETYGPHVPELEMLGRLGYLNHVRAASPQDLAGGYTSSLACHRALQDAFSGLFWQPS
From the text: as §2

CDK3/Cyclin E = CDK3/Cyclin E (Homo sapiens, UniProt Q00526); assay: In Vitro Kinase Assay
CDK3/Cyclin E, sequence (P24864 whole entry): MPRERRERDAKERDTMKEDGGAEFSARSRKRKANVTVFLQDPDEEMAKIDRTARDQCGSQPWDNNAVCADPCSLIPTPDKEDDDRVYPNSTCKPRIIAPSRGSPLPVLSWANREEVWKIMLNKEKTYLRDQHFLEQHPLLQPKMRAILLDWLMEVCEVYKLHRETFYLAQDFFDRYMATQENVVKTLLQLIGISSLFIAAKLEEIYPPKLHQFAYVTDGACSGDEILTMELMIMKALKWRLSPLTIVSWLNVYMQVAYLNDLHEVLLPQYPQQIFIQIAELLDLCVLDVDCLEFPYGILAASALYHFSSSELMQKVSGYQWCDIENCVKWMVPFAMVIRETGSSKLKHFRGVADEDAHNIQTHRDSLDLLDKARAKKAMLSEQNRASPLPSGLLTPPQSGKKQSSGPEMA
CDK3/Cyclin E, sequence (Q00526 whole entry): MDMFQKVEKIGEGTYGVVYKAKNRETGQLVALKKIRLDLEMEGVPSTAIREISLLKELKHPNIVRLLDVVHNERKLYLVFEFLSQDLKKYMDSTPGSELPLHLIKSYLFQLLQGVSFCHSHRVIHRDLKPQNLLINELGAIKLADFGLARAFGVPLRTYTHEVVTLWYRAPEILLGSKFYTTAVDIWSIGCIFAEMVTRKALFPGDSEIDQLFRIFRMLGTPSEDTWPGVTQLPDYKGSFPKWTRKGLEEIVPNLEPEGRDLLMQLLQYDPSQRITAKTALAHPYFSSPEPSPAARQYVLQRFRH
From the text: as §2

T2 sequence (P11802 whole entry): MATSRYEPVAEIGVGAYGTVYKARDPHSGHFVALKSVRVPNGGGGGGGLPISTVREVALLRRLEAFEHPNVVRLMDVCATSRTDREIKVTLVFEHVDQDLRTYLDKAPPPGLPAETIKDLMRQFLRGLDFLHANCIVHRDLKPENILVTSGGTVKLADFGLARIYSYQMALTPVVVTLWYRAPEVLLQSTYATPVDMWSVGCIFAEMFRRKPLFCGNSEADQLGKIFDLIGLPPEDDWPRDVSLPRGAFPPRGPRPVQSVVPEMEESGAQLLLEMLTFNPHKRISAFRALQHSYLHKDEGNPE
T2 sequence (P24385 whole entry, further chain): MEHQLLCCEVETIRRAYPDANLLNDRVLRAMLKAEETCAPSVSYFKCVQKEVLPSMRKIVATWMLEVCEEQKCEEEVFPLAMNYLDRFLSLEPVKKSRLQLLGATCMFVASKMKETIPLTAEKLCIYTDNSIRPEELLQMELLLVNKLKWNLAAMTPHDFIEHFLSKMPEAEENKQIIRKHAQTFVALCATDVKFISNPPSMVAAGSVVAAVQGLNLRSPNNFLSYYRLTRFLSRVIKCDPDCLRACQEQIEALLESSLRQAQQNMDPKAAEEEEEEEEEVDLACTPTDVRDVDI
T1 sequence (P06493 whole entry): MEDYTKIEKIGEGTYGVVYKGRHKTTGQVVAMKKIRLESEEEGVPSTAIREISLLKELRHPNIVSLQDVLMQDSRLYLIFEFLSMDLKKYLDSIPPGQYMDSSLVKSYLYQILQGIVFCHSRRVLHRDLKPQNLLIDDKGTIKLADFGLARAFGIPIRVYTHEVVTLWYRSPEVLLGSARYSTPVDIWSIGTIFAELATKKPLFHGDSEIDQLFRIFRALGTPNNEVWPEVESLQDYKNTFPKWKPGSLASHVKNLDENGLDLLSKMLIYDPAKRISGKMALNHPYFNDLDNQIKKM
T1 sequence (P14635 whole entry, further chain): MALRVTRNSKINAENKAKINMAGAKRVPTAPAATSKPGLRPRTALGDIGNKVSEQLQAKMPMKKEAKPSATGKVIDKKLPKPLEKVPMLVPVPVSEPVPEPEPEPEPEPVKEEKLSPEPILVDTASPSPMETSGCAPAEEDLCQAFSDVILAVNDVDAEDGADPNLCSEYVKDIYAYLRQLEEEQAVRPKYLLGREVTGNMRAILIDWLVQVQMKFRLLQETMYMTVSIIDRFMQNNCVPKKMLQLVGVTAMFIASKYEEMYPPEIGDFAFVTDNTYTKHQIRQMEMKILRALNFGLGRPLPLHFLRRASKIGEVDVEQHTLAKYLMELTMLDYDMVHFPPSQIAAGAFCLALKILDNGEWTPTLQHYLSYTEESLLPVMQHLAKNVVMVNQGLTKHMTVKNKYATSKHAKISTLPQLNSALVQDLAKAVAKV

Compound	pIC50 [5]	pIC50 [6]	pIC50 [7]	pIC50 [8]	other results
COCCOCCOCCOc1ccc(Cc2nc3c(c(C(C)C)nn3-c3c(Cl)cccc3Cl)c(=O)[nH]2)cc1 [PEGylated derivative, RGB-286276]					pIC50 [1]: 7.47; pIC50 [2]: 6.05; pIC50 [3]: 7.08; pIC50 [4]: 7.66
COc1ccc(Cc2nc3c(c(C(C)C)nn3-c3c(Cl)cc(Cl)cc3Cl)c(=O)[nH]2)cc1 [Pyrazolopyrimidone analog, RGB-285940]	6.07	6.64	8.15	6.39	
CC(C)c1nn(-c2c(Cl)cccc2Cl)c2nc(Cc3ccc(OCCN4CCOCC4)cc3)[nH]c(=O)c12 [Pyrazolopyrimidone analog, RGB-285960]	5.76	6.51	8.05	7.19	
CC(C)c1nn(-c2c(Cl)cccc2Cl)c2nc(Cc3ccc(OCCO)cc3)[nH]c(=O)c12 [Pyrazolopyrimidone analog, RGB-286147]	6.08	7.32	7.82	7.29	pIC50 [9]: 6.12; pIC50 [10]: 6.55; pIC50 [11]: 8.00; pIC50 [12]: 7.15; pIC50 (CDK3/Cyclin E): 8.05
COc1ccc(Cc2nc3c(c(C(C)C)nn3-c3c(Cl)cccc3Cl)c(=O)[nH]2)cc1 [Pyrazolopyrimidone analog, RGB-286331]		7.37	8.40	6.66	
COc1ccc(Cc2nc3c(cnn3-c3c(Cl)cc(Cl)cc3Cl)c(=O)[nH]2)cc1 [Pyrazolopyrimidone analog, RGB-310590]				5.26	
COc1ccc(Cc2nc3c(c(Cc4ccccc4)nn3-c3c(Cl)cc(Cl)cc3Cl)c(=O)[nH]2)cc1 [Pyrazolopyrimidone analog, RGB-310591]				< 5.00	
COc1ccc(Cc2nc3n[nH]c(C(C)C)c3c(=O)[nH]2)cc1 [Pyrazolopyrimidone analog, RGB-310595]				< 5.00	
COc1ccc(Cc2nc3c(c(C(C)C)nn3-c3ccccc3)c(=O)[nH]2)cc1 [Pyrazolopyrimidone analog, RGB-310596]				< 5.00	

— BindingDB's records for doi:10.1016/j.chembiol.2005.08.008 (Gpc Biotech, 2005)
